# Numbering of substitutions follows the chain as printed.
# B1: Variant 4: recombinant CYP1B1 with 48Arg, 119Ala, 432Val, 453Ser (protein, UniProt Q16678 1-543, looked up, variant N453S)
# Cytochrome P450 1B1: MGTSLSPNDPWPLNPLSIQQTTLLLLLSVLATVHVGQRLLRQRRRQLRSAPPGPFAWPLIGNAAAVGQAAHLSFARLARRYGDVFQIRLGSCPIVVLNGERAIHQALVQQGSAFADRPAFASFRVVSGGRSMAFGHYSEHWKVQRRAAHSMMRNFFTRQPRSRQVLEGHVLSEARELVALLVRGSADGAFLDPRPLTVVAVANVMSAVCFGCRYSHDDPEFRELLSHNEEFGRTVGAGSLVDVMPWLQYFPNPVRTVFREFEQLNRNFSNFILDKFLRHCESLRPGAAPRDMMDAFILSAEKKAAGDSHGGGARLDLENVPATITDIFGASQDTLSTALQWLLLLFTRYPDVQTRVQAELDQVVGRDRLPCMGDQPNLPYVLAFLYEAMRFSSFVPVTIPHATTANTSVLGYHIPKDTVVFVNQWSVNHDPLKWPNPENFDPARFLDKDGLISKDLTSRVMIFSVGKRRCIGEELSKMQLFLFISILAHQCDFRANPNEPAKMNFSYGLTIKPKSFKVNVTLRESMELLDSAVQNLQAKETCQ
# B2: Variant 2: recombinant CYP1B1 with 48Arg, 119Ser, 432Val, 453Asn (protein, UniProt Q16678 1-543, looked up, variant A119S)
# Cytochrome P450 1B1: B1 Cytochrome P450 1B1 with A119S, S453N
# B3: Variant 1: recombinant CYP1B1 with 48Gly, 119Ala, 432Val, 453Asn (protein, UniProt Q16678 1-543, looked up, variant R48G)
# Cytochrome P450 1B1: B1 Cytochrome P450 1B1 with R48G, S453N
# Experiments:
# [1] = target: T1, COMT (Homo sapiens, UniProt P21964); test: Assay of COMT activity, purified recombinant His-COMT, methylation of catechol estrogens; type: biochemical; conditions: for Km: formation of the named product from its catechol estrogen, recombinant His-COMT, 200 μM SAM, 10 min at 37° C.; for kcat: formation of the named product, in min-1 (unit assumed); for pattern of rates of methylation: substrate 2-100 μM; for formation of product by COMT: methylation of 4-OHE2 and 4-OHE1; for Hill Coefficient: sigmoidal fit
# T1 construct: made in house; host or cells: Escherichia coli DH5αF′Iq
# T1 sequence (P21964 51-271): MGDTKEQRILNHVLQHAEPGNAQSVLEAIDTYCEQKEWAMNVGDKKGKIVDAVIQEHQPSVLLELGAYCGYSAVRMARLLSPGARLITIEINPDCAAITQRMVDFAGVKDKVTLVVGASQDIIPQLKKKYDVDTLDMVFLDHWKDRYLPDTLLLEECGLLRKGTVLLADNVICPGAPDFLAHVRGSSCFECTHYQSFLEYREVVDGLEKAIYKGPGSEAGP
# Procedure: Assay of COMT Activity. Purified recombinant His-COMT (300 pmol) was reconstituted 0.5 ml of 100 mM KPO4, pH 7.4, containing 5 mM MgCl2, 10 mM β-mercaptoethanol, and 200 μM SAM. Reactions were initiated by adding varying concentrations of each individual catechol estrogen (2, 3, 6, 9, 12, 15, 20, 40, 60, 80, and 100 μM). Blanks contained all compounds except SAM. Reactions proceeded for 10 min at 37° C. with gentle shaking and then were terminated by addition of 2 ml CH2Cl2. To determine COMT activity in breast cancer cells, ZR-75 and MCF-7 cells were harvested at confluency and homogenized in 100 mM KPO4, pH 7.4, 5 mM MgCl2, 10 mM β-mercaptoethanol. Following ultracentrifugation of the cell homogenate (110,000 g, 30 min, 4° C.), the supernatant cytosol was divided into aliquots for ICELISA, protein determination (BCA assay; Pierce, Rockford, Ill.), and COMT assay. The latter was carried out in the presence of 200 μM SAM and 100 μM catechol estrogen for 20 min at 37° C. and then terminated by addition of CH2Cl2. The concentration of endogenous catechol and methoxy estrogens was below the limit of detection by gas chromatography/mass spectrometry.
# Extraction and Gas Chromatography/Mass Spectrometry Analysis of Catechol Estrogens. A deuterated internal standard (100 μl of 8 mg/liter E2-d4 in methanol) was added and all estrogens extracted into the CH2Cl2 by vortex mixing for 30 s. 1.5 ml of the CH2Cl2 fraction was evaporated to dryness under air and volatile TMS derivatives prepared by heating the residue with 100 μl of 50% NO-bis(trimethylsilyl)trifluoroacetamide/1% trimethyl chlorosilane in acetonitrile at 56° C. for 30 min. The TMS derivatives of the estrogen metabolites were separated by gas chromatography (H-P 5890, Hewlett-Packard, Wilmington, Del.) on a 5% phenyl methyl silicone stationary phase fused silica capillary column (30 m×0.2 mm×0.5 μm film, HP5; Hewlett-Packard). Helium carrier gas was used at a flow of 1 ml/min. The injector was operated at 250° C., with 2 μl injected in the splitless mode, with a purge (60 ml/min helium) time of 0.6 min. The oven temperature was held at 180° C. for 0.5 min, then raised at 6° C./min to 250° C. where it was held for 17 min, then raised to 300° C. at 8° C./min to give a total run time of 35.42 min. This program permitted adequate separation of a wide range of estrogen metabolites. Retention times (in min) for the TMS derivatives were E1 20.13, E2 and E2-d4 21.89, 4-MeOE1 23.52, 2-MeO-3-MeOE1 (underivatized) 23.75, 2-OH-3-MeOE1 24.87, 2-MeOE1 25.2, 4-MeOE2 25.78, 2-OHE1 and 2-MeO-3-MeOE2 26.19, 2-OH-3-MeOE2 26.9, 2-MeOE2 27.18, 4-OHE1 27.27, 6α-OHE2 27.29, 2-OHE2 27.44, 4-OHE2 28.06, E3 28.38. The EI mass spectrometer (H-P 5970) was operated in the selected ion monitoring mode from 18 to 30 min. Ions monitored were TMS-E1 342, 257, 343; TMS2-E2-d4 420, 421, 287; TMS2-E2 416, 417, 285; TMS-4-MeOE1, TMS-2-OH-3-MeOE1, TMS-2-MeOE1 and TMS-3-MeO-4-OHE1 372, 373, 342; 2-MeO-3-MeOE1 314, 315, 229; TMS2-4-MeOE2, TMS2-2-OH-3-MeOE2, TMS2-2-MeOE2 and TMS2-3-MeO-4-OHE2 446, 447, 315; TMS2-2-OHE1 430, 431, 432; TMS-2-MeO-3-MeOE2 388, 389, 257; TMS2-4-OHE1 430, 431, 345; TMS2-6α-OHE2 414, 283, 309; TMS3-2-OHE2 and TMS3-4-OHE2 504, 505, 373; TMS3-E3 504, 505, 311 (FIG. 7). The instrument was calibrated by simultaneous preparation of an 11-point calibration over the range 0-22 nmol/tube of each compound. Sensitivity was determined to be between 0.02 and 0.04 nmol/tube (400-800 fmol on column) for the various compounds. […] Absolute extraction efficiency for E2, 2-OH-E2 and 4-OH-E2 at 3.5 nmol/tube was 119, 96, and 107% assessed by comparison to injections of spiked solvent samples onto the gas chromatograph. Internal standard added prior to extraction compensated for deviation from 100% recovery for all investigated compounds.
# Statistical Analysis. […]
# [2] = system: DNA; conditions: cited from earlier work
# [3] = system: renal DNA; conditions: in vivo; cited from earlier work
# [4] = system: Syrian hamster; conditions: in vivo; cited from earlier work
# [5] = system: CYP1B1; test: Assay of CYP1B1 E2 hydroxylation activity; type: biochemical, human; conditions: for 2-OH-Estradiol kcat: E2 2-hydroxylation; for 4-OH-Estradiol kcat: E2 4-hydroxylation; for 16a-OH-Esrradiol kcat: E2 16α-hydroxylation
# Procedure: Assay of CYP1B1 E2 Hydroxylation Activity. Purified CYP1B1 (200 pmol) was reconstituted with a 2-fold molar amount of recombinant rat NADPH-P450 reductase (400 pmol), purified as previously described, and 60 μg of L-α-dilauroyl-sn-glycero-3-phosphocholine in the presence of sodium cholate (0.005%, w/v) in 0.4 ml of 100 mM potassium phosphate buffer, pH 7.4, containing varying concentrations of E2 (2, 3, 6, 9, 12, 15, 20, 40, 60, 80, and 100 μM) and 1 mM ascorbate. An NADPH-generating system consisting of 5 mM glucose 6-phosphate and 0.5 U of glucose-6-phosphate dehydrogenase/ml was added and reactions initiated by adding NADP+ to a final concentration of 0.5 mM. Reactions proceeded for 10 min at 37° C. with gentle shaking and then were terminated by addition of 2 ml CH2Cl2.
# Extraction and Gas Chromatography/Mass Spectrometry Analysis of E2 and Metabolites. A deuterated internal standard (100 μl of 8 mg/liter E2-2, 4, 16, 16-d4 in methanol; CDN Isotopes, Pointe-Claire, Quebec) was added and all steroids extracted into CH2Cl2 by vortex mixing for 30 s. 1.5 ml of the CH2Cl2 fraction was evaporated to dryness under air and volatile TMS derivatives prepared by heating the residue with 100 μl of 50% NO-bis(trimethylsilyl)trifluoroacetamide/1% trimethyl chlorosilane in acetonitrile at 56° C. for 30 min. The TMS derivatives of E2 and its metabolites were separated by gas chromatography (H-P 5890, Hewlett-Packard, Wilmington, Del.) on a 5% phenyl methyl silicone stationary phase fused silica capillary column (30 m×0.2 mm×0.5 μm film, HP5; Hewlett-Packard). Helium carrier gas was used at a flow of 1 ml/min. The injector was operated at 250° C., with 2 μl injected in the splitless mode, with a purge (60 ml/min helium) time of 0.6 min. The oven temperature was held at 189° C. for 0.5 min, then raised at 6° C./min to 250° C. where it was held for 17 min, then raised to 300° C. at 8° C./min to give a total run time of 35.42 min. […] The EI mass spectrometer (H-P 5970) was operated in the selected ion monitoring mode from 18 to 34 min. Ions monitored were TMS2-E2-d4 420, 288, 330; TMS2-E2 416, 285, 326; TMS3-2-OH-E2 504, 373; TMS3-4-OH-E2 504, 373, 325; TMS3-16α-OH-E2 345, 311, 504. The instrument was calibrated by simultaneous preparation of an 11-point calibration over the range […]/tube of each compound. […] Internal standard added prior to extraction compensated for deviation from 100% recovery.
# Statistical Analysis. Kinetic parameters (Km and kcat) were determined by nonlinear regression analysis using the computer program GraphPad PRISM (San Diego, Calif.).
molecule,measurement,setting,value
COc1cc2c(cc1O)CC[C@@H]1[C@@H]2CC[C@]2(C)C(=O)CC[C@@H]12 [2-MeOE1],Km,[1],74 ± 8 µM
same,kcat,[1],3.3 ± 0.2
COc1cc2c(cc1O)CC[C@@H]1[C@@H]2CC[C@]2(C)[C@@H](O)CC[C@@H]12 [2-MeOE2],Km,[1],108 ± 9 µM
same,kcat,[1],6.8 ± 0.4
COc1cc2c(cc1O)[C@H]1CC[C@]3(C)C(=O)CC[C@H]3[C@@H]1CC2 [2-OH-3-MeOE1],Km,[1],73 ± 16 µM
same,kcat,[1],2.8 ± 0.4
COc1cc2c(cc1O)[C@H]1CC[C@]3(C)[C@@H](O)CC[C@H]3[C@@H]1CC2 [2-OH-3-MeOE2],Km,[1],51 ± 5 µM
same,kcat,[1],1.5 ± 0.1
C[C@]12CC[C@@H]3c4cc(O)c(O)cc4CC[C@H]3[C@@H]1CCC2=O [2-OHE1],pattern of rates of methylation,[1],typical hyperbolic patterns
C[C@]12CC[C@@H]3c4cc(O)c(O)cc4CC[C@H]3[C@@H]1CC[C@@H]2O [2-OHE2],DNA single-strand breaks,[2],negligible effect
same,pattern of rates of methylation,[1],typical hyperbolic patterns
same,levels of the oxidized base 8-hydroxy-deoxyguanosine,[3],did not cause oxidative DNA damage
COc1ccc2c(c1O)CC[C@@H]1[C@@H]2CC[C@]2(C)C(=O)CC[C@@H]12 [3-MeO-4-OHE1],formation of product by COMT,[1],not observed
COc1ccc2c(c1O)CC[C@@H]1[C@@H]2CC[C@]2(C)[C@@H](O)CC[C@@H]12 [3-MeO-4-OHE2],formation of product by COMT,[1],not observed
COc1c(O)ccc2c1CC[C@@H]1[C@@H]2CC[C@]2(C)C(=O)CC[C@@H]12 [4-MeOE1],Km,[1],53 ± 6 µM
same,kcat,[1],6.7 ± 0.4
same,Hill Coefficient,[1],2.0 ± 0.4
COc1c(O)ccc2c1CC[C@@H]1[C@@H]2CC[C@]2(C)[C@@H](O)CC[C@@H]12 [4-MeOE2],Km,[1],24 ± 3 µM
same,kcat,[1],3.4 ± 0.2
same,Hill Coefficient,[1],1.6 ± 0.2
C[C@]12CC[C@@H]3c4ccc(O)c(O)c4CC[C@H]3[C@@H]1CCC2=O [4-OHE1],pattern of rates of methylation,[1],sigmoid curve pattern
same,levels of the oxidized base 8-hydroxy-deoxyguanosine,[3],significantly increased
same,induction of renal cancer,[4],induced renal cancer
C[C@]12CC[C@@H]3c4ccc(O)c(O)c4CC[C@H]3[C@@H]1CC[C@@H]2O [4-OHE2],DNA single-strand breaks,[2],induced DNA single-strand breaks
same,pattern of rates of methylation,[1],sigmoid curve pattern
same,levels of the oxidized base 8-hydroxy-deoxyguanosine,[3],significantly increased
same,induction of renal cancer,[4],induced renal cancer
B1,2-OH-Estradiol kcat,[5],0.0467 ± 0.0033 s⁻¹
same,4-OH-Estradiol kcat,[5],0.075 ± 0.005 s⁻¹
same,16a-OH-Esrradiol kcat,[5],0.0065 ± 0.00033 s⁻¹
B2,2-OH-Estradiol kcat,[5],0.0383 ± 0.0017 s⁻¹
same,4-OH-Estradiol kcat,[5],0.0633 ± 0.0017 s⁻¹
same,16a-OH-Esrradiol kcat,[5],0.00567 ± 0.00033 s⁻¹
B3,2-OH-Estradiol kcat,[5],0.0533 ± 0.0033 s⁻¹
same,4-OH-Estradiol kcat,[5],0.1 ± 0.0033 s⁻¹
same,16a-OH-Esrradiol kcat,[5],0.00933 ± 0.00067 s⁻¹

# — patent US20080076129A1, “Method of Detecting an Increased Susceptibility to Breast Cancer” (priority 2000, published 2008)
